Measurements taken from patent publication US5089623A, “Certain imidate insecticides” (Imperial Chemical Industries Plc, priority 1990, dated 1992).

Legend:
Assay type in all cases: in vivo
[1] = test system: Rice water weevil [Lissorhoptrus oryzophilus (Kuschel)]; assay: Rice water weevil test (RWW); conditions: per weevil, topical, female adults, 48 hours
Experimental: The compounds in Tables 1 and 2 above were tested for insecticidal activity using the following testing procedures. LC50 values, based on the results of these tests and calculated according to dosage-mortality curves, are expressed in Table 3.
Rice water weevil [Lissorhoptrus oryzophilus (Kuschel)]
Test compounds were diluted in acetone. Droplets (1 ul) of test solutions were applied to the ventral abdomens of ten female adult weevils. The treated weevils were placed in containers with wet cotton balls and rice foliage. The containers were covered and kept at a temperature of about 25° C. Mortality was recorded after 48 hours. […] The LC50 values are expressed below in Table 3 under the heading "RWW" in terms of μg of test compound per weevil.

[2] = test system: Aster Leafhopper [Macrosteles fascifrens (Stal)]; assay: Aster leafhopper test (LH); conditions: adults/nymphs, 48 hours, percent in solution
[3] = test system: Tobacco Budworm [Heliothis virescens (Fabricius)]; assay: Tobacco budworm contact test (TBW-C); conditions: second-instar larvae, 5 days, percent in solution
Outline: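 Cotton cotyledons dipped 2–3 s in compound in 50:50 acetone–water, dried, then infested with 5 second-instar larvae and held 5 days at high humidity before scoring mortality.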

[4] = test system: Cabbage Looper [Trichoplusia ni (Hubner)]; assay: Cabbage looper test (CL); conditions: second-instar larvae, 3-5 days, percent in solution
[5] = test system: Housefly [Musca domestica]; assay: Housefly insecticidal test (HF); conditions: per 25 female houseflies, 48 hours
[6] = test system: Beet Armyworm (Spodoptera exigua); assay: Beet armyworm test (BAW); conditions: second-instar larvae, five days, percent in solution
Outline: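 Sugar beet leaves were dipped 2-3 s in compound diluted in 50-50 acetone-water, dried, then infested with five second-instar larvae in humid dishes. Mortality was scored after five days at concentrations from 0.1% downward. LC50 was taken from dosage-mortality curves as percent compound in solution.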

[7] = test system: Maize weevil [Sitophilus Zeamais (Motschulsky)]; assay: Maize weevil test (MW); conditions: adult weevils, treated corn seeds, 48 hours, percent in solution
Outline: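 Adult weevils (10) were placed with four corn seeds that had been dipped 2-3 s in compound dissolved in 50:50 acetone:water, then dried, and held at about 25° C. Mortality was scored at 48 h. LC50 was taken from dosage-mortality curves and expressed as percent compound in solution, from a 0.01% top concentration.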

[8] = test system: Tobacco Budworm [Heliothis virescens (Fabricius)] eggs; assay: Tobacco budworm egg test (TBW-E); conditions: percent in solution

SMILES | LC50 RWW [1] | LC50 LH [2] | LC50 TBW C [3] | LC50 CL [4] | LC50 HF [5] | LC50 BAW [6] | LC50 MW [7] | LC50 TBW E [8]
CC(C)C(=Nc1ccc(F)c(Cl)c1F)OCc1cccc(Oc2ccc(F)cc2)c1 [Compound 352] | > 2.5 µg | 0.0004% | 0.0004% | 0.000065% | 4.6 µg | > 0.1% | 0.0075% | > 0.1%
CC(C)C(=Nc1ccc2c(c1)OC(F)(F)O2)OCc1ccc(F)c(Oc2ccccc2)c1 [Compound 285] | 0.13 µg | – | 0.00017% | 0.000075% | 36 µg | 0.0006% | 0.005% | 0.005%
CC(C)C(=Nc1ccc(F)c(Cl)c1)OCc1cccc(Oc2ccc(Cl)cc2)c1 [Compound 239] | > 2.5 µg | 0.002% | 0.0005% | 0.00015% | 14 µg | 0.005% | 0.006% | 0.025%
CC(C)C(=Nc1ccc2c(c1)OC(F)(F)O2)OCc1cccc(Oc2ccc(F)cc2)c1 [Compound 244] | 0.09 µg | – | 0.00025% | 0.00004% | 14 µg | 0.002% | 0.0025% | > 0.1%
CC(C)C(=Nc1ccc(F)c(C(F)(F)F)c1)OCc1ccc(F)c(Oc2ccc(F)cc2)c1 [Compound 277] | 0.065 µg | 0.0003% | 0.0005% | 0.00001% | 4 µg | 0.005% | > 0.01% | 0.013%
CC(C)C(=Nc1ccc(F)c(Cl)c1)OCc1cccc(Oc2ccccc2)c1 [Compound 81] | > 0.5 µg | 0.0003% | 0.0009% | 0.0006% | 4 µg | 0.003% | 0.005% | 0.007%
CC(C)C(=Nc1ccc(OC(F)(F)F)cc1)OCc1ccc(F)c(Oc2ccc(F)cc2)c1 [Compound 286] | 0.09 µg | 0.0006% | 0.00017% | 0.000024% | 34 µg | 0.0004% | 0.0039% | 0.005%
CC(C)C(=Nc1ccc2c(c1)OC(F)(F)O2)OCc1cccc(Oc2ccccc2)c1 [Compound 245] | > 2.5 µg | – | 0.0015% | 0.0035% | 20 µg | 0.001% | 0.006% | 0.016%
CC(C)C(=Nc1ccc(F)c(Cl)c1)OCc1ccc(F)c(Oc2ccc(F)cc2)c1 [Compound 216] | 0.067 µg | 0.00025% | 0.00018% | 0.000007% | 2 µg | 0.0007% | 0.0017% | 0.005%
CC(C)C(=Nc1ccc(Cl)cc1)OCc1cccc(Oc2ccc(Cl)cc2)c1 [Compound 269] | > 2.5 µg | 0.003% | 0.001% | 0.0003% | 25 µg | 0.0024% | > 0.01% | 0.04%
CC(C)C(=Nc1ccc(F)c(F)c1)OCc1ccc(F)c(Oc2ccccc2)c1 [Compound 336] | > 2.5 µg | – | 0.0005% | 0.00017% | 3.6 µg | 0.001% | 0.0091% | 0.02%
CC(C)C(=Nc1ccc(F)c(F)c1)OCc1ccc(F)c(Oc2ccc(F)cc2)c1 [Compound 278] | 0.085 µg | 0.0003% | 0.00026% | 0.00002% | 3 µg | 0.0012% | 0.0063% | 0.008%
CC(C)C(=Nc1ccc(C(F)(F)F)cc1)OCc1ccc(F)c(Oc2ccccc2)c1 [Compound 337] | 0.067 µg | – | 0.0005% | 0.0007% | 21 µg | 0.0005% | 0.0053% | 0.008%
CC(C)C(=Nc1cc(F)cc(F)c1)OCc1cccc(Oc2ccccc2)c1 [Compound 55] | > 2.5 µg | 0.0005% | 0.004% | 0.0017% | > 100 µg | 0.006% | – | 0.06%
CC(C)C(=Nc1ccc2c(c1)OCO2)OCc1cccc(Oc2ccccc2)c1 [Compound 180] | > 2.5 µg | 0.0015% | 0.003% | 0.0004% | 2 µg | 0.005% | 0.008% | 0.03%
CC(C)C(=Nc1ccc(OC(F)(F)F)cc1)OCc1ccc(F)c(Oc2ccc(Cl)cc2)c1 [Compound 323] | 0.16 µg | 0.05% | 0.00065% | 0.0006% | > 100 µg | 0.0025% | 0.0075% | 0.045%
CC(C)C(=Nc1ccc(F)c(Cl)c1)OCc1cccc(Oc2ccc(F)cc2)c1 [Compound 89] | > 2.5 µg | 0.001% | 0.0005% | 0.00003% | 5 µg | 0.009% | 0.005% | 0.04%
CC(C)C(=Nc1ccc(F)c(Cl)c1)OCc1ccc(F)c(Oc2ccc(Cl)cc2)c1 [Compound 267] | 0.11 µg | 0.002% | 0.0003% | 0.00008% | 8.4 µg | 0.0012% | 0.0027% | 0.015%
CC(C)C(=Nc1ccc(F)c(Br)c1)OCc1ccc(F)c(Oc2ccc(F)cc2)c1 [Compound 273] | > 2.5 µg | 0.0003% | 0.00025% | 0.000018% | 7 µg | 0.0017% | 0.004% | 0.015%
CC(C)C(=Nc1ccc(F)c(I)c1)OCc1ccc(F)c(Oc2ccc(F)cc2)c1 [Compound 281] | > 2.5 µg | – | 0.00025% | 0.00002% | 5 µg | 0.0027% | 0.005% | 0.006%
